The NIST ThermoML archive (doi:10.1021/je060353z)

Assay: xn = mol fraction of the nth substance listed
Conditions: 101 kPa, Liquid

Clc1ccccc1 [chlorobenzene] + CCCCCCCCO
Conditions	mass density [kg/m3]	speed of sound [m/s]	viscosity [mPa·s]
298.15 K, x1 = 0.1423	848.715	1334.1	5.448
298.15 K, x1 = 0.2807	877.644	1319.1	3.87
298.15 K, x1 = 0.4121	908.104	1303.7	2.788
298.15 K, x1 = 0.5237	936.698	1291.1	2.116
298.15 K, x1 = 0.6158	962.489	1281.2	1.692
298.15 K, x1 = 0.7073	990.466	1272.7	1.363
298.15 K, x1 = 0.7885	1017.46	1267	1.132
298.15 K, x1 = 0.8662	1045.68	1264	0.956
298.15 K, x1 = 0.9331	1072.02	1264	0.841
298.15 K, x1 = 1	1100.97	1268	0.757
303.15 K, x1 = 0.1423	844.912	1317.5	4.64
303.15 K, x1 = 0.2807	873.625	1303.4	3.352
303.15 K, x1 = 0.4121	903.886	1289.6	2.455
303.15 K, x1 = 0.5237	932.283	1277.8	1.89
303.15 K, x1 = 0.6158	957.91	1268.6	1.528
303.15 K, x1 = 0.7073	985.68	1260	1.243
303.15 K, x1 = 0.7885	1012.47	1253.4	1.04
303.15 K, x1 = 0.8662	1040.47	1248.7	0.885
303.15 K, x1 = 0.9331	1066.6	1247.5	0.782
303.15 K, x1 = 1	1095.1	1249.4	0.714
308.15 K, x1 = 0.1423	841.161	1302.6	3.981
308.15 K, x1 = 0.2807	869.616	1289.5	2.919
308.15 K, x1 = 0.4121	899.625	1276	2.174
308.15 K, x1 = 0.5237	927.793	1263.8	1.678
308.15 K, x1 = 0.6158	953.186	1254.6	1.366
308.15 K, x1 = 0.7073	980.694	1245.7	1.119
308.15 K, x1 = 0.7885	1007.21	1238.7	0.956
308.15 K, x1 = 0.8662	1034.92	1233.4	0.833
308.15 K, x1 = 0.9331	1060.82	1230.9	0.752
308.15 K, x1 = 1	1089.08	1230.9	0.677
313.15 K, x1 = 0.1423	836.375	1285.8	3.436
313.15 K, x1 = 0.2807	864.727	1273.2	2.562
313.15 K, x1 = 0.4121	894.659	1260.3	1.934
313.15 K, x1 = 0.5237	922.757	1248.9	1.528
313.15 K, x1 = 0.6158	948.078	1239.6	1.267
313.15 K, x1 = 0.7073	975.5	1230.7	1.037
313.15 K, x1 = 0.7885	1001.95	1223.5	0.891
313.15 K, x1 = 0.8662	1029.57	1217.8	0.76
313.15 K, x1 = 0.9331	1055.42	1214.3	0.681
313.15 K, x1 = 1	1083.66	1212.6	0.617

Clc1ccccc1 [chlorobenzene] + CCCCCCCO
Conditions	mass density [kg/m3]	speed of sound [m/s]	viscosity [mPa·s]
298.15 K, x1 = 0.1306	846.348	1316.7	4.469
298.15 K, x1 = 0.2566	874.819	1305.5	3.335
298.15 K, x1 = 0.3866	906.448	1293.8	2.453
298.15 K, x1 = 0.4947	934.739	1284	1.911
298.15 K, x1 = 0.5878	960.727	1276	1.557
298.15 K, x1 = 0.6827	988.992	1269.1	1.273
298.15 K, x1 = 0.7682	1016.23	1264.6	1.073
298.15 K, x1 = 0.8521	1044.88	1262.7	0.918
298.15 K, x1 = 0.9255	1071.67	1263.8	0.817
298.15 K, x1 = 1	1100.97	1268	0.757
303.15 K, x1 = 0.1306	842.689	1300	3.832
303.15 K, x1 = 0.2566	870.964	1289	2.896
303.15 K, x1 = 0.3866	902.362	1277.6	2.164
303.15 K, x1 = 0.4947	930.425	1268.2	1.709
303.15 K, x1 = 0.5878	956.224	1260.7	1.406
303.15 K, x1 = 0.6827	984.268	1253.8	1.16
303.15 K, x1 = 0.7682	1011.3	1248.7	0.984
303.15 K, x1 = 0.8521	1039.69	1245.4	0.85
303.15 K, x1 = 0.9255	1066.23	1245.5	0.764
303.15 K, x1 = 1	1095.1	1249.4	0.714
308.15 K, x1 = 0.1306	838.9	1283.3	3.311
308.15 K, x1 = 0.2566	866.926	1272.1	2.532
308.15 K, x1 = 0.3866	898.052	1260.4	1.922
308.15 K, x1 = 0.4947	925.892	1250.2	1.543
308.15 K, x1 = 0.5878	951.47	1242	1.283
308.15 K, x1 = 0.6827	979.252	1235	1.059
308.15 K, x1 = 0.7682	1006.02	1230.1	0.915
308.15 K, x1 = 0.8521	1034.12	1227.6	0.816
308.15 K, x1 = 0.9255	1060.42	1228	0.733
308.15 K, x1 = 1	1089.08	1230.9	0.677
313.15 K, x1 = 0.1306	835.146	1266.5	2.872
313.15 K, x1 = 0.2566	862.967	1255.6	2.219
313.15 K, x1 = 0.3866	893.905	1243.8	1.705
313.15 K, x1 = 0.4947	921.55	1233.6	1.378
313.15 K, x1 = 0.5878	946.95	1225.3	1.135
313.15 K, x1 = 0.6827	974.575	1217.9	0.953
313.15 K, x1 = 0.7682	1001.13	1212.9	0.822
313.15 K, x1 = 0.8521	1029.02	1209.9	0.723
313.15 K, x1 = 0.9255	1055.08	1209.7	0.662
313.15 K, x1 = 1	1083.66	1212.6	0.617
